Data from PubChem BioAssay (NCI).
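Cultured in 96-well plates, cells were exposed to test compound for 48 hours across five concentrations. At the TGI there is no net growth.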

How the values were obtained:
Test in all cases: growth of human tumour cells (NCI), 48 h
NCI-H23 lung = tested on: NCI-H23 lung
SK-MEL-28 melanoma = tested on: SK-MEL-28 melanoma
COLO 205 colon = tested on: COLO 205 colon
SR leukemia = tested on: SR leukemia
HCC-2998 colon = tested on: HCC-2998 colon
U251 CNS = tested on: U251 CNS
A498 renal = tested on: A498 renal
UO-31 renal = tested on: UO-31 renal
CAKI-1 renal = tested on: CAKI-1 renal
BT-549 breast = tested on: BT-549 breast

SMILES | TGI (NCI-H23 lung) | TGI (SK-MEL-28 melanoma) | TGI (COLO 205 colon) | TGI (SR leukemia) | TGI (HCC-2998 colon) | TGI (U251 CNS) | TGI (A498 renal) | TGI (UO-31 renal) | TGI (CAKI-1 renal) | TGI (BT-549 breast)
CSc1nc(C)cc(=O)n1C1OC(COC(C)=O)C(OC(C)=O)C(OC(C)=O)C1OC(C)=O (stereo unspecified) | > 100 µM | > 100 µM | > 100 µM | > 100 µM | > 100 µM | > 100 µM | > 100 µM | > 100 µM |  | 
Brc1ccc(-c2nc(-c3ccc(Br)cc3)n(-c3ccccc3)n2)cc1 | > 100 µM | > 100 µM | 57.5 µM |  |  | > 100 µM | > 100 µM | > 100 µM | > 100 µM | > 100 µM
CC(=O)c1sc2c(c1O)c(=O)n(-c1ccccc1)c(=S)n2-c1ccccc1 | > 100 µM | > 100 µM | > 100 µM |  | > 100 µM | > 100 µM |  | > 100 µM |  | > 100 µM
C=CC1(O)CCCC=C1COCc1ccccc1 (stereo unspecified) | > 100 µM | > 100 µM | > 100 µM | 57 µM | > 100 µM | > 100 µM | > 100 µM | > 100 µM | > 100 µM | 
CCOP(=O)(/C=C/n1cnc2c(=O)n(C(C)=O)c(N)nc21)OCC | > 100 µM | > 100 µM | > 100 µM |  |  | > 100 µM | > 100 µM |  | > 100 µM | > 100 µM
O=C(/C=C/c1cccs1)c1ccc([N+](=O)[O-])cc1 | > 100 µM | > 100 µM | > 100 µM | > 100 µM | > 100 µM | > 100 µM | > 100 µM | > 100 µM | > 100 µM | 
CC(=O)N1c2ccccc2[C@H]2CCc3c([nH]c4ccccc34)[C@H]21 | 31.2 µM | 31.1 µM | 27.6 µM |  |  | 26.5 µM | 36.2 µM | 67.6 µM | 64.4 µM | 30 µM
Cc1cc2c3c(c1)CCCN3CCC2 | > 10 µM | > 10 µM | > 10 µM | > 10 µM | > 10 µM | > 10 µM | > 10 µM | > 10 µM | > 10 µM | 
CCN(CCCl)c1cc(CN(C)C)cc(NC(=O)c2cc(C(=O)Nc3cc(CN(C)C)cc(N(CC)CCCl)c3)n(C)n2)c1 | 3.04 µM | 2.81 µM | 2.05 µM | > 100 µM | 2.11 µM | 0.387 µM | 4.41 µM | 7.42 µM | 2.72 µM | 
CC(=O)OC1CC[C@@]2(C)C(=CC[C@@H]3[C@@H]2CC[C@]2(C)C(OC(C)=O)[C@H](n4ccnc4)C[C@@H]32)C1 (stereo partly specified) | > 100 µM | 31.5 µM | 34.4 µM | 36.7 µM |  | > 100 µM | > 100 µM | > 100 µM | > 100 µM | 
COC(=O)C1(Cc2ccccc2)Cc2c(C)ccc(C)c2C1=O (stereo unspecified) | > 100 µM | > 100 µM | 25.4 µM | > 100 µM | 97.7 µM | > 100 µM | > 100 µM | 38 µM |  | 
NC(N)=N/N=C\c1c(-c2ccccc2)nc2sccn12 | 25.4 µM | 29.1 µM | 24.6 µM | > 100 µM | 16.8 µM | 28.5 µM | 33.6 µM | 31.6 µM | 29.6 µM | 
O[C@]12c3ccccc3C1CCCCC2N1CCOCC1 (stereo partly specified) | > 100 µM | > 100 µM | > 100 µM | > 100 µM |  | > 100 µM |  | > 100 µM |  | 
O=C([O-])C1([n+]2c(-c3ccccc3)cc(-c3ccccc3)cc2-c2ccccc2)CC1 | > 100 µM | > 100 µM |  | > 100 µM | > 100 µM | > 100 µM | > 100 µM |  |  | 
Cc1ccc2oc3c(ccc(=O)n3C)c(=O)c2c1 | > 100 µM | > 100 µM | > 100 µM | > 100 µM | > 100 µM | > 100 µM | > 100 µM | > 100 µM | > 100 µM | 
O=c1[nH]nc(Cc2ccccc2)n1C1CC1 | > 100 µM | > 100 µM | > 100 µM | > 100 µM | > 100 µM | > 100 µM | > 100 µM | > 100 µM | > 100 µM | 
COc1cccc(/C=N/[N-]C(N)=O)c1[O-].[OH3+].[Pd+2] | > 100 µM | > 100 µM | > 100 µM | > 100 µM | > 100 µM | > 100 µM | > 100 µM | > 100 µM | > 100 µM | 
COc1cccc2c1[C@H]1OC(=O)NC1CCCCC2 (stereo partly specified) | > 100 µM | > 100 µM | > 100 µM |  | > 100 µM | > 100 µM | > 100 µM | > 100 µM | > 100 µM | 
CCOP(=O)(/C=C\n1ccc(=O)[nH]c1=O)OCC | > 100 µM | > 100 µM | > 100 µM |  |  | > 100 µM | > 100 µM |  | > 100 µM | > 100 µM
C=CCCCCCCCCC(=O)ON(Cc1ccc(O)c(OC)c1)C(=O)C(F)(F)F | > 100 µM | > 100 µM | > 100 µM | > 100 µM | > 100 µM | > 100 µM | > 100 µM | 68 µM |  | 
